Data from US20240197713A1, “LFA-1 ANTAGONISTS FOR TREATING INFLAMMATORY BOWEL DIESEASE” (VivaVision Biotech, Inc, priority 2022, published 2024).

Test system: oxazolone-induced colitis mice
Assay: Oxazolone-induced acute colitis in mice for ulcerative colitis
Assay type: in vivo, Balb/c mice
Conditions: compound 1 5 mg/kg, tofacitinib 10 mg/kg; for bodyweight loss (bodyweight change, FIG. 1): PO BID 5 days (Days 4 to 8 after sensitization) in 0.5% CMC-Na; for DAI score (disease activity index, FIG. 2): PO BID 5 days, scored per Table 2; for colon density (FIG. 5) / colon length (FIG. 4) / colon weight (FIG. 3): colon collected Day 9, PO BID 5 days
Method: Compound 1 (i.e., lifitegrast) was evaluated in an oxazolone-induced colitis murine model, along with tofacitinib. Boirivant et al., J. Exp. Med. 1998, 188, 1929-39. Balb/c mice were randomly divided into 4 groups according to Table 1: 2 treatment groups (Treatment Groups), 1 vehicle group (Vehicle Group), and 1 sham group (Sham Group). The mice in Treatment and Vehicle Groups were sensitized with 200 μL of 2% oxazolone in acetone and olive oil (1:4), followed by injection of 100 μL of 1.5% oxazolone into the rectum of each mouse on Day 5 after sensitization. The mice in Sham Group were sensitized with 200 μL of a mixture of acetone and olive oil (1:4) without oxazolone, followed by injection of 100 μL of 50% ethanol/water into the rectum of each mouse on Day 5 after sensitization. Before the injection into the rectum, each mouse was anesthetized intraperitoneally with tribromoethanol (0.3 mL, 1.25%). From Days 4 to 8 after sensitization, the mice in Sham Group and Vehicle Group were each given 0.5% CMC-Na by gavage, and the mice in Treatment Groups were each given by gavage tofacitinib or compound 1 in 0.5% CMC-Na, respectively, according to the dosing schedule shown in Table 1.
The bodyweight of each mouse was measured daily. From Day 4 after sensitization, the fecal property and occult blood as determined with a fecal occult blood test (FOBT) of each mouse were measured daily to calculate a disease activity index (DAI) according to Table 2.
On Day 9 after sensitization, each mouse was euthanized and blood was collected from the heart. A serum was prepared and frozen for the determination of inflammatory factors.
The colon of each mouse was collected and photographed, and the colon length was measured and weighed after the removal of the content of the colon. A part of each colon collected was fixed using the Swiss roll technique in neutral paraformaldehyde for pathological scoring (Table 3) as described in Bialkowska et al., J. Vis. Exp. 2016, 113, e54161. The rest of the colon mucosa of each mouse was scraped and frozen for the determination of inflammatory factors.

Row | Compound | bodyweight loss (bodyweight change, FIG. 1) | DAI score (disease activity index, FIG. 2) | colon density (FIG. 5) | colon length (FIG. 4) | colon weight (FIG. 3)
1 | CS(=O)(=O)c1cccc(C[C@H](NC(=O)c2c(Cl)cc3c(c2Cl)CCN(C(=O)c2ccc4ccoc4c2)C3)C(=O)O)c1 [compound 1, (S)-2-(2-(benzofuran-6-carbonyl)-5,7-dichloro-1,2,3,4-tetrahydroisoquinoline-6-carboxamido)-3-(3-(methylsulfonyl)phenyl)propanoic acid] | slowed the bodyweight loss | improved the DAI score | able to reverse the disease effects | able to reverse the disease effects | able to reverse the disease effects
2 | C[C@@H]1CCN(C(=O)CC#N)C[C@@H]1N(C)c1ncnc2[nH]ccc12 [tofacitinib] | slowed the bodyweight loss | improved the DAI score | able to reverse the disease effects | able to reverse the disease effects | able to reverse the disease effects
